Data taken from patent US12281363B2, “Methods for detecting antiviral-drug resistant virus” (Secretary of State for Health and Social Care, priority 2018, dated 2025).
Like-named read-outs stand apart in the source and are kept apart here.

System: HSV-1
Experiment: Plaque reduction assay, HSV-1 clinical isolates on Vero cells
Format: cell-based
Settings: Human alphaherpesvirus 1, Vero
Excerpt: Viral isolates were used to infect a sub-confluent monolayer of Vero cells at a concentration of 75 or 50 plaque forming units (PFU) per well for HSV-1 and HSV-2, respectively. […] CMC medium typically used to create a semisolid interface and prevents indiscrimate viral spreading. Other materials (e.g. agar) may also be used to create this interface.
Cells were fixed with 10% formalin and stained with crystal violet before enumeration of the plaques (microscopic observation or use of fluorescent antibodies for detection is also suitable). The data obtained from these experiments were then expressed as percent inhibition of viral infectivity relative to the no drug control.
Definitions of phenotypic drug susceptibility classification as sensitive or resistant were as follows: ACV, <3 μM or >40 μM; PCV, <10 μM or >40 μM; CDV, <24 μM or >30 μM; FOS, <250 μM or >400 μM; and ACV, <6.5 μM or >40 μM; PCV, <38 μM or >40 μM; FOS, <250 μM or >400 μM for HSV-1 and HSV-2, respectively. Any IC50 values falling in between these sensitive and resistant cut-offs were reported as intermediate resistance.
The phenotype (i.e. reactivity to a drug) of the virus was characterised by the plaque reduction assay as described above.

In the case of `Nc1ccn(C[C@@H](CO)OCP(=O)(O)O)c(=O)n1` [Cidofovir, cidofovir], the IC50 (72 h, isolate HPG053, HSV-1 pol L802R + A834S (2405T>G, 2500G>T), also TK R176W, read-out: Drug susceptibility (IC50 value)) is reported as 7.72 µM, the IC50 (isolate HPG002, HSV-1 pol E992K (2974G>A), also TK insert (G) nt 430-436, pol A1169T, read-out: Drug susceptibility (IC50 value)) is reported as 6.09 µM and the IC50 (isolate HPG002, HSV-1 pol E992K (2974G>A), also TK insert (G) nt 430-436, pol A1169T, read-out: Drug susceptibility Cidofovir (CDV)) is reported as < 24 µM. For the same compound, the IC50 (isolate HPG003, HSV-1 TK Y172S (515A>C), read-out: Drug susceptibility (IC50 value)) was < 1.56 µM, the IC50 (isolate HPG003, HSV-1 TK Y172S (515A>C), read-out: Drug susceptibility Cidofovir (CDV)) was < 24 µM and the IC50 (isolate HPG005, HSV-1 TK A37V (110C>T), read-out: Drug susceptibility (IC50 value)) was 2.21 µM. For the same compound, the IC50 (isolate HPG005, HSV-1 TK A37V (110C>T), read-out: Drug susceptibility Cidofovir (CDV)) was < 24 µM, the IC50 (isolate HPG008, HSV-1 TK V204G (611T>G), read-out: Drug susceptibility (IC50 value)) was 3.56 µM and the IC50 (isolate HPG008, HSV-1 TK V204G (611T>G), read-out: Drug susceptibility Cidofovir (CDV)) was < 24 µM. The IC50 (isolate HPG009, HSV-1 pol E992K (2974G>A), also pol A1169T, read-out: Drug susceptibility (IC50 value)) was 9.44 µM, the IC50 (isolate HPG009, HSV-1 pol E992K (2974G>A), also pol A1169T, read-out: Drug susceptibility Cidofovir (CDV)) was < 24 µM and the IC50 (isolate HPG010, HSV-1 TK Q125* (373C>T), read-out: Drug susceptibility (IC50 value)) was < 1.56 µM. The IC50 (isolate HPG010, HSV-1 TK Q125* (373C>T), read-out: Drug susceptibility Cidofovir (CDV)) was < 24 µM, the IC50 (isolate HPG011, HSV-1 TK Q125* (373C>T), read-out: Drug susceptibility (IC50 value)) was < 1.56 µM and the IC50 (isolate HPG011, HSV-1 TK Q125* (373C>T), read-out: Drug susceptibility Cidofovir (CDV)) was < 24 µM. For the same compound, the IC50 (isolate HPG013, HSV-1 TK M121I (363G>A), read-out: Drug susceptibility (IC50 value)) was 3.11 µM, the IC50 (isolate HPG013, HSV-1 TK M121I (363G>A), read-out: Drug susceptibility Cidofovir (CDV)) was < 24 µM and the IC50 (isolate HPG013, HSV-1 pol D83A (248A>C), also TK M121I, pol A1169T, read-out: Drug susceptibility (IC50 value)) was 3.11 µM. The IC50 (isolate HPG013, HSV-1 pol D83A (248A>C), also TK M121I, pol A1169T, read-out: Drug susceptibility Cidofovir (CDV)) was < 24 µM, the IC50 (isolate HPG014, HSV-1 pol A1115T (3343G>A), read-out: Drug susceptibility (IC50 value)) was 17.2 µM and the IC50 (isolate HPG014, HSV-1 pol A1115T (3343G>A), read-out: Drug susceptibility Cidofovir (CDV)) was < 24 µM. The IC50 (isolate HPG014, HSV-1 pol R993C (2977C>T), read-out: Drug susceptibility (IC50 value)) was 17.2 µM, the IC50 (isolate HPG014, HSV-1 pol R993C (2977C>T), read-out: Drug susceptibility Cidofovir (CDV)) was < 24 µM and the IC50 (isolate HPG014, HSV-1 pol T54A (160A>G), read-out: Drug susceptibility (IC50 value)) was 17.2 µM. For the same compound, the IC50 (isolate HPG014, HSV-1 pol T54A (160A>G), read-out: Drug susceptibility Cidofovir (CDV)) was < 24 µM, the IC50 (isolate HPG015, HSV-1 pol 966stop or F965_I966insF (2892_2893insT to 2895_2896insT), read-out: Drug susceptibility (IC50 value)) was 45.1 µM and the IC50 (isolate HPG015, HSV-1 pol 966stop or F965_I966insF (2892_2893insT to 2895_2896insT), read-out: Drug susceptibility Cidofovir (CDV)) was > 30 µM. The IC50 (isolate HPG018, HSV-1 TK frameshift (881delC to 885delC), read-out: Drug susceptibility (IC50 value)) was 3.03 µM, the IC50 (isolate HPG018, HSV-1 TK frameshift (881delC to 885delC), read-out: Drug susceptibility Cidofovir (CDV)) was < 24 µM and the IC50 (isolate HPG018, HSV-1 pol P1199T (3595C>A), also TK deletion (C) nt 881-885, pol A1169T, read-out: Drug susceptibility (IC50 value)) was 3.03 µM. For the same compound, the IC50 (isolate HPG018, HSV-1 pol P1199T (3595C>A), also TK deletion (C) nt 881-885, pol A1169T, read-out: Drug susceptibility Cidofovir (CDV)) was < 24 µM, the IC50 (isolate HPG019, HSV-1 pol K750T (2249A>C), also TK deletion (G) nt 430-436, pol A1169T, read-out: Drug susceptibility (IC50 value)) was 20.4 µM and the IC50 (isolate HPG019, HSV-1 pol K750T (2249A>C), also TK deletion (G) nt 430-436, pol A1169T, read-out: Drug susceptibility Cidofovir (CDV)) was < 24 µM. The IC50 (isolate HPG020, HSV-1 pol S911N (2732G>A), also pol A1169T, read-out: Drug susceptibility (IC50 value)) was 4.38 µM, the IC50 (isolate HPG020, HSV-1 pol S911N (2732G>A), also pol A1169T, read-out: Drug susceptibility Cidofovir (CDV)) was < 24 µM and the IC50 (isolate HPG021, HSV-1 pol R681Q (2042G>A), also TK deletion (G) nt 430-436, read-out: Drug susceptibility (IC50 value)) was < 1.56 µM. The IC50 (isolate HPG021, HSV-1 pol R681Q (2042G>A), also TK deletion (G) nt 430-436, read-out: Drug susceptibility Cidofovir (CDV)) was < 24 µM, the IC50 (isolate HPG021, HSV-1 pol T839A (2515A>G), also TK deletion (G) nt 430-436, read-out: Drug susceptibility (IC50 value)) was < 1.56 µM and the IC50 (isolate HPG021, HSV-1 pol T839A (2515A>G), also TK deletion (G) nt 430-436, read-out: Drug susceptibility Cidofovir (CDV)) was < 24 µM. For the same compound, the IC50 (isolate HPG025, HSV-1 pol E850Q (2548G>C), also TK R216C, read-out: Drug susceptibility (IC50 value)) was < 1.56 µM, the IC50 (isolate HPG025, HSV-1 pol E850Q (2548G>C), also TK R216C, read-out: Drug susceptibility Cidofovir (CDV)) was < 24 µM and the IC50 (isolate HPG026, HSV-1 pol E850Q (2548G>C), also TK R216C, pol A1169T, read-out: Drug susceptibility (IC50 value)) was < 1.56 µM. The IC50 (isolate HPG026, HSV-1 pol E850Q (2548G>C), also TK R216C, pol A1169T, read-out: Drug susceptibility Cidofovir (CDV)) was < 24 µM, the IC50 (isolate HPG027, HSV-1 TK V204G (611T>G), also pol S914L, A1169AT, read-out: Drug susceptibility (IC50 value)) was 3.93 µM and the IC50 (isolate HPG027, HSV-1 TK V204G (611T>G), also pol S914L, A1169AT, read-out: Drug susceptibility Cidofovir (CDV)) was < 24 µM. For the same compound, the IC50 (isolate HPG027, HSV-1 pol S914L (2741C>T), also TK V204G, pol A1169T, read-out: Drug susceptibility (IC50 value)) was 3.93 µM, the IC50 (isolate HPG027, HSV-1 pol S914L (2741C>T), also TK V204G, pol A1169T, read-out: Drug susceptibility Cidofovir (CDV)) was < 24 µM and the IC50 (isolate HPG029, HSV-1 TK Y172S (515A>C), read-out: Drug susceptibility (IC50 value)) was 2.99 µM. The IC50 (isolate HPG029, HSV-1 TK Y172S (515A>C), read-out: Drug susceptibility Cidofovir (CDV)) was < 24 µM, the IC50 (isolate HPG031, HSV-1 pol E1120A (3359A>C), also a TK resistance mutation (footnote e), read-out: Drug susceptibility (IC50 value)) was 4.8 µM and the IC50 (isolate HPG031, HSV-1 pol E1120A (3359A>C), also a TK resistance mutation (footnote e), read-out: Drug susceptibility Cidofovir (CDV)) was < 24 µM. The IC50 (isolate HPG031, HSV-1 pol G139R (415G>C or 415G>A), also a TK resistance mutation (footnote e), read-out: Drug susceptibility (IC50 value)) was 4.8 µM, the IC50 (isolate HPG031, HSV-1 pol G139R (415G>C or 415G>A), also a TK resistance mutation (footnote e), read-out: Drug susceptibility Cidofovir (CDV)) was < 24 µM and the IC50 (isolate HPG032, HSV-1 TK 183* (437_438insA), read-out: Drug susceptibility (IC50 value)) was 3.61 µM.
